Key:
SULT1A1 = target: T1, SULT1A1 (Homo sapiens, UniProt P50225); assay: thermal aggregation shift (StarGazer static light scattering); assay type: binding; conditions: 1 mM compound, pH 7.5, with saturating PAP
T1 construct: purified recombinant; clone and tag not described
Source text: thermal aggregation shift (StarGazer static light scattering) on SULT1A1

SULT1C3 = target: T2, SULT1C3 (Homo sapiens, UniProt Q6IMI6); assay: as above; assay type: binding; conditions: 1 mM compound
T2 construct: recombinant, modified pET28a-LIC, bacterial expression; extra Gly-Ser at N-terminus

SULT1C2 [1] = target: T3, SULT1C2 (Homo sapiens, UniProt O75897); assay: as above; assay type: binding; conditions: 1 mM compound, pH 7.5, no other ligand
T3 construct: gene SULT1C4; recombinant, modified pET28a-LIC, bacterial expression; extra Gly-Ser at N-terminus
Source text: thermal aggregation shift (StarGazer static light scattering) on SULT1C2

SULT1B1 [2] = target: T4, SULT1B1 (Homo sapiens, UniProt O43704); assay: as above; assay type: binding; conditions: 1 mM compound
T4 construct: recombinant, modified pET28a-LIC, bacterial expression; extra Gly-Ser at N-terminus
Source text: thermal aggregation shift (StarGazer static light scattering) on SULT1B1

SULT1C1 = target: T5, SULT1C1 (Homo sapiens, UniProt O00338); assay: as above; assay type: binding; conditions: 1 mM compound
T5 construct: gene SULT1C2; recombinant, modified pET28a-LIC; extra Gly-Ser at N-terminus
Source text: thermal aggregation shift (StarGazer static light scattering) on SULT1C1

SULT1E1 = target: T6, SULT1E1 (Homo sapiens, UniProt P49888); assay: as above; assay type: binding; conditions: 1 mM compound, pH 7.5, with saturating PAP
T6 construct: purified recombinant; clone and tag not described
T6 sequence (P49888 1-294): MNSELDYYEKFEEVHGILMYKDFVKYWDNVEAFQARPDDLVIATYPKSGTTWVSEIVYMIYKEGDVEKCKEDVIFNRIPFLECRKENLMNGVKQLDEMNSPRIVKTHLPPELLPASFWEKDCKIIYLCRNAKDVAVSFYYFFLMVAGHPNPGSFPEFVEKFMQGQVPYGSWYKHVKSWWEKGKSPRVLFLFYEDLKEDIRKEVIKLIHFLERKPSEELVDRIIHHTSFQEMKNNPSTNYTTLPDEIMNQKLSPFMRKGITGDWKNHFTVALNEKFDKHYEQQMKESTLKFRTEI
Source text: thermal aggregation shift (StarGazer static light scattering) on SULT1E1

SULT1A3 = target: T7, SULT1A3 (Homo sapiens, UniProt P0DMM9); assay: as above; assay type: binding; conditions: 1 mM compound, pH 7.5, with saturating PAP
T7 construct: purified recombinant; clone and tag not described; SULT1A4 encodes the same protein
Source text: thermal aggregation shift (StarGazer static light scattering) on SULT1A3

SULT4A1 = target: T8, SULT4A1 (Homo sapiens, UniProt Q9BR01); assay: as above; assay type: binding; conditions: 1 mM compound, pH 7.5, without PAP
T8 construct: recombinant, modified pET28a-LIC, bacterial expression; extra Gly-Ser at N-terminus
T8 sequence (Q9BR01 1-284): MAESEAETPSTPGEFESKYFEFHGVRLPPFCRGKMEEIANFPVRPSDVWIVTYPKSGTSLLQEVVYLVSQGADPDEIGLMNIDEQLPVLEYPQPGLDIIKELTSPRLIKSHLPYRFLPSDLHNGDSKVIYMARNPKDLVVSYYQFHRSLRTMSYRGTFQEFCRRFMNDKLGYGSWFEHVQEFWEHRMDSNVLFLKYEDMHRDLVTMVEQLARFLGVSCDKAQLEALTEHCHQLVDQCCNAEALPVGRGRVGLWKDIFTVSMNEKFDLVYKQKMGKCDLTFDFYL
Source text: thermal aggregation shift (StarGazer static light scattering) on SULT4A1

SULT2A1 = target: T9, SULT2A1 (Homo sapiens, UniProt Q06520); assay: as above; assay type: binding; conditions: 1 mM compound, pH 7.5, without PAP
T9 construct: purified recombinant; clone and tag not described
T9 sequence (Q06520 1-285): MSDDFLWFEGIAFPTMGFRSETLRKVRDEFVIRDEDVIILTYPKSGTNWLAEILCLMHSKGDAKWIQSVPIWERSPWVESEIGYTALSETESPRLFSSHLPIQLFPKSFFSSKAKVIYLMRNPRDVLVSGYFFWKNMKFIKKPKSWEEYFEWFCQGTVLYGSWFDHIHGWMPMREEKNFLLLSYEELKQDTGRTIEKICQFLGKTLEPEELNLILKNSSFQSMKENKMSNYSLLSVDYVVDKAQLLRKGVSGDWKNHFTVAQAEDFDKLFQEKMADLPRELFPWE
Source text: thermal aggregation shift (StarGazer static light scattering) on SULT2A1

SULT1B1 [3] = target: T4, SULT1B1; assay: HPLC PAPS to PAP conversion, inhibition of sulfotransferase activity; assay type: biochemical; conditions: 1-naphthol as substrate; PCP 5 to 312 μM; pH 7.5, 37 °C
SULT1C2 [4] = target: T3, SULT1C2; assay: X-ray crystal structure, […] Å; assay type: binding; conditions: ternary complex with PAP; substrate pocket

T5 sequence (O00338 whole entry): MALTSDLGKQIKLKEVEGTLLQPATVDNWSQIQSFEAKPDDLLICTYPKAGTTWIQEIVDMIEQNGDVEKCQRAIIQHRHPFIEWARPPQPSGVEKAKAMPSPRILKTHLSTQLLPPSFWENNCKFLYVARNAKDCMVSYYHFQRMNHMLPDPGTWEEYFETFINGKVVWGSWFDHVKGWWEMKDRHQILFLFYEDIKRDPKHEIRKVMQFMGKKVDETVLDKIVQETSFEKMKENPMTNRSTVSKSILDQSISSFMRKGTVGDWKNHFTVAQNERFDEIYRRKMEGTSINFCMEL
T4 sequence (O43704 whole entry): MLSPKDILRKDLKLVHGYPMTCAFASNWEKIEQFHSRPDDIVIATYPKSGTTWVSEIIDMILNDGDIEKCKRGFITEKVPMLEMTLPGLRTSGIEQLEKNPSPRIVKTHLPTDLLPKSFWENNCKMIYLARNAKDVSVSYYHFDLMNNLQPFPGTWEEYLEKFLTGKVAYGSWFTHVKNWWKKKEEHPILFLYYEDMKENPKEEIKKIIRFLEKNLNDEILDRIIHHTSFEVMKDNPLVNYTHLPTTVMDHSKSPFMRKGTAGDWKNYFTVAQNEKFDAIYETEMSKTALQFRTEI
T2 sequence (Q6IMI6 whole entry): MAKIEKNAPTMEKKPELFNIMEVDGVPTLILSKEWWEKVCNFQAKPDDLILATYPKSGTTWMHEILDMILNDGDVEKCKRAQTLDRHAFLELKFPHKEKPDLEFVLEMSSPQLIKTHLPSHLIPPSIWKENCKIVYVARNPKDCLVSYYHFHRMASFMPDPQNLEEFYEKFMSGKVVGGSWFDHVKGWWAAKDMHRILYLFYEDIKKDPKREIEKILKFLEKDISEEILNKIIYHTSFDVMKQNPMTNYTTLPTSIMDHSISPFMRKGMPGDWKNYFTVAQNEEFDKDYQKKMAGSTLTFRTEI
T3 sequence (O75897 whole entry): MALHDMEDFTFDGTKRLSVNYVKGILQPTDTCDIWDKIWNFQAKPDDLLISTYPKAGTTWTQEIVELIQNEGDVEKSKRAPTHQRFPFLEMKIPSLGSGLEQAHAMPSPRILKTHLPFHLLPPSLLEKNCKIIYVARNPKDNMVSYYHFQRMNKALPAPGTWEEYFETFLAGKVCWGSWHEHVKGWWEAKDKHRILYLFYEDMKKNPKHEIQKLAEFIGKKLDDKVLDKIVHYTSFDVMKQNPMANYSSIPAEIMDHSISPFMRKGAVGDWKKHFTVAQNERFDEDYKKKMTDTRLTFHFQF
T1 sequence (P50225 whole entry): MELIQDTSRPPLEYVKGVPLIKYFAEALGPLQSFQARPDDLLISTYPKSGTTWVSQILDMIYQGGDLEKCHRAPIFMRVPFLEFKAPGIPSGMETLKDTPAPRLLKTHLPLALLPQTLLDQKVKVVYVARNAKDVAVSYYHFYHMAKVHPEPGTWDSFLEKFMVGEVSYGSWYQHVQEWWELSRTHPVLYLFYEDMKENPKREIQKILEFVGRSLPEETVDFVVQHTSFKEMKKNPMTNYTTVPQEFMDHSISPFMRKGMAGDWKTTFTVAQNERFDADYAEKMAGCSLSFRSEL
T7 sequence (P0DMM9 whole entry): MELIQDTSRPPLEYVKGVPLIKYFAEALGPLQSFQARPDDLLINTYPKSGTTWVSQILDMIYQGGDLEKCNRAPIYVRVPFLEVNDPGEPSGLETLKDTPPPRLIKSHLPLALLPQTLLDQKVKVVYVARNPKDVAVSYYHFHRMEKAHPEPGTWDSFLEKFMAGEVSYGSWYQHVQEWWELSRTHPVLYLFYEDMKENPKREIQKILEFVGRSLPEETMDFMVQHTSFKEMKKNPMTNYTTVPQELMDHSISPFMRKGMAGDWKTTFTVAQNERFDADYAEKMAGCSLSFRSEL

O=[N+]([O-])c1cc(Cl)c(O)c(Cl)c1 [2,6-dichloro-4-nitrophenol]
dTagg (SULT1A1): 8.7 °C

CCc1ccccc1O [2-ethylphenol]
dTagg (SULT1C3; pH 7.5, with saturating PAP): 2.1 °C

Nc1ncnc2c1ncn2[C@@H]1O[C@H](COP(=O)(O)O)[C@@H](OP(=O)(O)O)[C@H]1O [3′-phosphoadenosine 5′-phosphate]
dTagg (SULT1C3; pH 7.5, no other ligand): 6.5 °C | dTagg (SULT1C2 [1]): 6.4 °C | dTagg (SULT1B1 [2]; pH 7.5, no other ligand): 7.8 °C | dTagg (SULT1C1; pH 7.5, no other ligand): 4.5 °C

C#C[C@]1(O)CC[C@H]2[C@@H]3CCc4cc(O)ccc4[C@H]3CC[C@@]21C [17α-ethinylestradiol]
dTagg (SULT1E1): 4.3 °C

O=C(NN=Cc1coc2c(Cl)cc(Cl)cc2c1=O)c1cc(Br)c(O)c(Br)c1 [DBHD, 3,5-dibromo-4-hydroxy-benzoic acid (6,8-dichloro-4-oxo-4H-chromen-3-ylmethylene) hydrazide]
dTagg (SULT1B1 [2]; pH 7.5, without PAP): 11.4 °C

NCCc1ccc(O)c(O)c1 [dopamine]
dTagg (SULT1A3): 2.3 °C

CNC[C@H](O)c1ccc(O)c(O)c1 [epinephrine]
dTagg (SULT4A1): 16 °C

CC(C)NCC(O)c1ccc(O)c(O)c1 (stereo not shown) [isoprenaline]
dTagg (SULT4A1): 18 °C

C[C@H](CCC(=O)O)[C@H]1CC[C@H]2[C@@H]3CC[C@@H]4C[C@H](O)CC[C@]4(C)[C@H]3CC[C@]12C [lithocholic acid]
dTagg (SULT2A1): 4.4 °C

Oc1c(Cl)c(Cl)c(Cl)c(Cl)c1Cl [pentachlorophenol]
% inhibition (SULT1B1 [3]): PCP and DBHD were strong inhibitors of SULT1B1 | dTagg (SULT1B1 [2]; pH 7.5, with saturating PAP): 8.9 °C | X-ray crystal structure, 1.8 Å (SULT1C2 [4]): we determined the structure of SULT1C2 bound to PAP and PCP | dTagg (SULT1A1): 10.2 °C

O=c1c(O)c(-c2ccc(O)c(O)c2)oc2cc(O)cc(O)c12 [quercetin dihydrate]
dTagg (SULT1C1; pH 7.5, without PAP): 31 °C

Oc1ccc(/C=C/c2cc(O)cc(O)c2)cc1 [resveratrol]
dTagg (SULT1C1; pH 7.5, without PAP): 6.6 °C

C[C@H]1CCC[C@H](O)CCC/C=C/c2cc(O)cc(O)c2C(=O)O1 [α-zearalenol]
dTagg (SULT1C3; pH 7.5, with saturating PAP): 2.8 °C

Source: article PMC1847840, “Structural and Chemical Profiling of the Human Cytosolic Sulfotransferases” (PLoS Biology, 2007)
